Drawing on patent US20140336182A1, “Aurora Kinase Modulators and Method of Use” (Amgen Inc., priority 2013, published 2014), this text covers EC50 for 55 compounds.

The first test deals with HeLa cells. Briefly: HeLa cell 24 hr ploidy assay (DNA content). It is filed as cell-based. The note with it: HeLa cells, 4N ploidy, average, read-out: 24h_4NPloidy EC50_IP (uM Avg). In short, it runs like this: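 DNA content measured by Hoechst 33342 nuclear staining (0.5 ug/ml, 45 min RT) and high-content imaging of fixed HeLa cells after 24 h compound exposure in 0.25% DMSO. Fractions of 4N and >4N cells fitted to dose curves giving EC50 IP, EC50 transit, Max and Min.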
For `c1ccc(-c2nnc(Nc3ccc(Sc4ccnc5cccnc45)cc3)c3ccccc23)cc1` [compound 309], the EC50 turned out to be 0.021 µM.

Take `c1ccc(-c2nnc(Nc3ccc(Sc4ccnc5cccnc45)cc3)c3ccccc23)cc1` [compound 285]: the EC50 came out at 0.009 µM.

Still in this test, the particulars now being: Homo sapiens, HeLa, 4N ploidy, average, read-out: 24h_4NPloidy EC50_IP (uM Avg).
Take `COc1cc2nccc(Oc3ccc(Nc4nnc(-c5ccccc5)c5ccccc45)cc3)c2cn1` [compound 96, N-(4-((7-(methyloxy)-1,6-naphthyridin-4-yl)oxy)phenyl)-4-phenyl-1-phthalazinamine]: the EC50 was 0.063 µM.

As for `COc1cnc2c(Oc3ccc(Nc4nnc(-c5ccccc5)c5ccccc45)cc3)ccnc2c1` [compound 79, N-(4-((7-(methyloxy)-1,5-naphthyridin-4-yl)oxy)phenyl)-4-phenyl-1-phthalazinamine], the EC50 was found to be 0.041 µM.

As for `CCc1cc(-c2ccccc2)nnc1Nc1ccc(Oc2ccnc3cc(C#N)ccc23)cc1` [compound 149], the EC50 worked out at 0.42 µM.

Take `COc1cnc2c(Oc3ccc(Cc4nnc(-c5ccc(C)cc5)c5ccccc45)cc3)ccnc2c1` [compound 126, 3-(methyloxy)-8-((4-((4-(4-methylphenyl)-1-phthalazinyl)methyl)phenyl)oxy)-1,5-naphthyridine]: the EC50 is greater than 1.2 µM.

Take `NC(=O)c1cc2nccc(Oc3ccc(Nc4nnc(-c5ccccc5)c5ccccc45)cc3)c2s1` [Example 46, 7-(4-(4-phenylphthalazin-1-ylamino)phenoxy)thieno[3,2-b]pyridine-2-carboxamide]: the EC50 stood at 0.171 µM.

For `N#Cc1ccc2c(Oc3ccc(Nc4nnc(-c5ccc(C(F)(F)F)cc5)c5ccccc45)cc3)ccnc2c1` [compound 147, 4-((4-((4-(4-(trifluoromethyl)phenyl)-1-phthalazinyl)amino)phenyl)oxy)-7-quinolinecarbonitrile], the EC50 worked out at 0.02 µM.

Regarding `COc1cnc2c(Oc3ccc(Nc4nnc(-c5ccc(Cl)s5)c5ccccc45)cc3)ccnc2c1` [compound 140, 4-(5-chloro-2-thienyl)-N-(4-((7-(methyloxy)-1,5-naphthyridin-4-yl)oxy)phenyl)-1-phthalazinamine], the EC50 amounted to 0.022 µM.

With `COc1cnc2c(Oc3cnc(Nc4nnc(-c5ccccc5)c5ccccc45)nc3)ccnc2c1` [compound 84], the EC50 was found to be 0.485 µM.

For `COc1cnc2c(Oc3ccc(Nc4nnc(-c5ccccc5)c5ccccc45)cc3F)ccnc2c1` [compound 89, N-(3-fluoro-4-((7-(methyloxy)-1,5-naphthyridin-4-yl)oxy)phenyl)-4-phenyl-1-phthalazinamine], the EC50 was 0.052 µM.

As for `COc1cnc2c(Oc3ccc(Nc4nnc(-c5ccc(Cl)c(C#N)c5)c5ccccc45)cc3)ccnc2c1` [compound 154], the EC50 was 0.061 µM.

`Cc1ccc(-c2nnc(Nc3ccc(Oc4ccnc5cc(C#N)ccc45)cc3)c3ccccc23)s1` [compound 162]: the EC50 amounted to 0.004 µM.

`COc1cc2nccc(Oc3ccc(Nc4nnc(-c5cccc(CO)n5)c5ccccc45)cc3)c2cc1OC` [compound 112]: the EC50 was 0.02 µM.

Still in this test, the particulars now being: Homo sapiens, HeLa, HeLa cells, 4N ploidy, average, read-out: 24h_4NPloidy EC50_IP (uM Avg).
As to `Clc1ccc(-c2nnc(Nc3ccc(Oc4ncnc5ccsc45)cc3)c3ccccc23)cc1` [compound 591], the EC50 was 0.115 µM.

As to `COc1cc(F)cc2nccc(Sc3ccc(Nc4nnc(-c5ccc(Cl)cc5)c5ccccc45)cc3)c12` [compound 438], the EC50 came out at 0.016 µM.

For the compound `COc1cnc2c(Sc3ccc(Nc4nnc(-c5ccc(C)nc5)c5ccccc45)cc3)ccnc2c1` [compound 588], the EC50 is 0.004 µM.

Turning to `N#Cc1cnc2c(Oc3ccc(Nc4nnc(-c5ccccc5)c5ccccc45)cc3)ccnc2c1` [Example 44, 8-(4-(4-phenylphthalazin-1-ylamino)phenoxy)-1,5-naphthyridine-3-carbonitrile], the EC50 is greater than 1.2 µM.

Turning to `FC(F)(F)Oc1ccc2c(Oc3ccc(Nc4nnc(-c5ccccc5)c5ccccc45)cc3)ccnc2c1` [compound 496], the EC50 was 0.397 µM.

In the case of `COc1cc2nccc(Oc3ccc(Nc4nnc(-c5ccccc5)c5ccccc45)cc3)c2cc1C#N` [Example 392, 7-Methoxy-4-(4-(4-phenylphthalazin-1-ylamino)phenoxy)quinoline-6-carbonitrile], the EC50 stood at 0.085 µM.

Turning to `Cc1ccc(-c2nnc(Nc3ccc(Sc4ccnc5cccnc45)cc3)c3ccccc23)cn1` [compound 553], the EC50 is 0.001 µM.

As for `COc1cc(F)cc2nccc(Oc3ccc(Nc4nnc(-c5cc(C)cs5)c5ccccc45)cc3)c12` [compound 442], the EC50 was less than 0.0023 µM.

As to `COCCOCCn1c(=O)ccc2nccc(Sc3ccc(Nc4nnc(-c5ccc(Cl)cc5)c5ccccc45)cc3)c21` [compound 476], the EC50 turned out to be 0.14 µM.

In the case of `Clc1ccc(-c2nnc(Nc3ccc(Sc4ccnc5ccncc45)cc3)c3ccccc23)nc1` [compound 430], the EC50 was determined as 0.007 µM.

`Cc1csc(-c2nnc(Nc3ccc(Oc4ccnc5ccc(OC(F)(F)F)cc45)cc3)c3ccccc23)c1` [compound 575]: the EC50 was 0.112 µM.

Turning to `COc1cnc2c(Sc3ccc(Nc4nnc(C(C)C)c5ccccc45)cc3)ccnc2c1` [compound 558], the EC50 was determined as 0.1 µM.

As to `Cc1ccc(-c2nnc(Nc3ccc(Sc4ccnc5ccoc45)cc3)c3ccccc23)cc1N` [compound 479], the EC50 came out at 0.009 µM.

Take `Cc1ccc(-c2nnc(Nc3ccc(Oc4ccnc5cc(-c6cncn6C)sc45)cc3)c3ccccc23)cc1` [compound 203]: the EC50 stood at 0.002 µM.

On to `Cc1nc(-c2nnc(Nc3ccc(Oc4ccnc5cc(C#N)ccc45)cc3)c3ccccc23)sc1C` [compound 277], for which the EC50 was 0.035 µM.

Turning to `Cc1cccc(-c2nnc(Nc3ccc(Sc4ccnc5cccnc45)cc3)c3ccccc23)n1` [compound 421], the EC50 was determined as 0.051 µM.

Turning to `COc1cnc2c(Sc3ccc(Nc4nnc(N5CCC[C@@H](OC)C5)c5ccccc45)cc3)ccnc2c1` [compound 532], the EC50 is 0.02 µM.

As for `COc1cnc2c(Oc3ccc(Nc4nnc(N5CCSCC5)c5ccccc45)cc3)ccnc2c1` [compound 337], the EC50 stood at 0.229 µM.

Consider `Oc1cc(-c2nnc(Nc3ccc(Sc4ccnc5cccnc45)cc3)c3ccccc23)ccc1Cl` [compound 452], for which the EC50 is less than 0.0023 µM.

Take `Clc1ccc(-c2nnc(Nc3ccc(Sc4ccnc5cc(C6CC6)oc45)cc3)c3ccccc23)cc1` [compound 486]: the EC50 was 0.002 µM.

For the compound `COc1cc2ncnc(Sc3ccc(Nc4nnc(-c5ccc(Cl)cc5)c5ccccc45)cc3)c2cc1OC` [compound 418], the EC50 is 0.004 µM.

As for `CCc1cc(N2CC[C@H]3CCCC[C@@H]3C2)nnc1Nc1ccc(Oc2ccnc3cc(OC)cnc23)cc1` [compound 320], the EC50 is 0.12 µM.

`COc1cnc2c(Sc3ccc(Nc4nnc(N5CCC(C(F)(F)F)CC5)c5ccccc45)cc3)ccnc2c1` [compound 523]: the EC50 was 0.006 µM.

Turning to `Cc1csc(-c2nnc(Nc3ccc(Oc4ncnc5ccccc45)cc3)c3ccccc23)c1` [compound 568], the EC50 amounted to 0.034 µM.

`COc1cnc2c(Sc3ccc(Nc4nnc(OC(C)C)c5ccccc45)cc3)ccnc2c1` [compound 511]: the EC50 came to 0.094 µM.

Regarding `COc1cc2nccc(Oc3ccc(Nc4nnc(-c5ccc(C)cc5)c5ccccc45)cc3)c2cc1C(N)=O` [compound 211], the EC50 came to 0.002 µM.

`COc1cnc2c(Oc3ccc(Nc4nnc(-c5cc(CF)cs5)c5ccccc45)cc3)ccnc2c1` [Example 408, 4-(4-(Fluoromethyl)thiophen-2-yl)-N-(4-(7-methoxy-1,5-naphthyridin-4-yloxy)phenyl)phthalazin-1-amine]: the EC50 was 0.025 µM.

`COc1cnc2c(Sc3ccc(Nc4nnc(C#N)c5ccccc45)cc3)ccnc2c1` [Example 404, 4-(4-(7-Methoxy-1,5-naphthyridin-4-ylthio)phenylamino)phthalazine-1-carbonitrile]: the EC50 turned out to be 0.063 µM.

As to `Cc1csc(-c2nnc(Nc3ccc(Oc4ccnc5ccncc45)cc3)c3ccccc23)c1` [compound 429], the EC50 was found to be 0.034 µM.

With `COc1cnc2c(Oc3ccc(Nc4nnc(-c5cccc6[nH]ccc56)c5ccccc45)cc3)ccnc2c1` [compound 183], the EC50 was determined as 0.052 µM.

For the compound `COc1ccc2nccc(Oc3ccc(Nc4nnc(-c5ccccc5)c5ccccc45)cc3)c2n1` [compound 347], the EC50 was found to be 0.039 µM.

Consider `Cc1cc2nccc(Sc3ccc(Nc4nnc(-c5ccc(C)c(N)c5)c5ccccc45)cc3)c2o1` [compound 492], for which the EC50 was found to be 0.021 µM.

Consider `Cc1cc2nccc(Sc3ccc(Nc4nnc(-c5ccc(Cl)cc5)c5ccccc45)cc3)c2s1` [compound 559], for which the EC50 amounted to 0.018 µM.

Take `COc1cnc2c(Sc3ccc(Nc4nnc(N5CCN6CCC[C@@H]6C5)c5ccccc45)cc3)ccnc2c1` [compound 582]: the EC50 worked out at 0.006 µM.

Consider `Cc1csc(-c2nnc(Nc3ccc(Oc4ccnc5cccnc45)cc3)c3cc(F)c(F)cc23)c1` [compound 510], for which the EC50 is 0.017 µM.

Turning to `COc1cnc2c(Sc3ccc(Nc4nnc(-c5ccc6c(c5)OCO6)c5ccccc45)cc3)ccnc2c1` [compound 530], the EC50 was 0.001 µM.

As for `Clc1ccc(-c2nnc(Nc3ccc(Oc4ncnc5ccccc45)cc3)c3ccccc23)cc1` [compound 562], the EC50 came out at 0.026 µM.

For `COc1cnc2c(Sc3ccc(Nc4nnc(N5CCN6CCC[C@H]6C5)c5ccccc45)cc3)ccnc2c1` [compound 563], the EC50 was less than 0.0023 µM.

Turning to `CCc1cc(-c2ccc(Cl)cc2)nnc1Nc1ccc(Oc2ccnc3cc(OC)cnc23)nc1` [compound 275, 6-(4-chlorophenyl)-4-ethyl-N-(6-(7-methoxy-1,5-naphthyridin-4-yloxy)pyridin-3-yl)pyridazin-3-amine], the EC50 amounted to 0.161 µM.

As for `CCN(CC)C(=O)c1cc2nccc(Oc3ccc(Nc4nnc(-c5ccc(Cl)cc5)c5ccccc45)cc3)c2s1` [compound 270], the EC50 came to 0.082 µM.

The test is the same for the next values; noted with them: Homo sapiens, HeLa, HeLa cells, average, read-out: 24h_4NPloidy EC50_IP (uM Avg).
In the case of `COc1ccc2c(C(O)c3ccc(Nc4nnc(-c5ccc(Cl)cc5)c5ccccc45)cc3)ccnc2c1` (stereo not shown) [compound 614], the EC50 turned out to be 0.053 µM.
